Data as given in article PMC8761912, “Cryptosporidium parvum Pyruvate Kinase Inhibitors With in vivo Anti-cryptosporidial Efficacy” (Frontiers in Microbiology, 2022).

Tests used:
[1] = In vitro compound cytotoxicity assay (WST-1); format: cell-based; settings: human, uninfected HCT-8 cells
Description: Compounds were tested for cytotoxicity in human ileocecal colorectal adenocarcinoma cells [HCT-8 (HRT-18); ATCC® CCL-244™, CVCL_2478] by using the cell proliferation reagent WST-1 (Roche) according to the manufacturer’s protocol. The WST-1 assay is a quantitative colorimetric assay for measurement of metabolically active cells. This assay is based on the reduction of the tetrazolium salt (WST-1) by viable cells. About 5 × 10^4 HCT-8 cells were seeded per well in 96-well plates and grown overnight in 200 μl of RPMI-1640 medium (without phenol red) (Gibco) supplemented with 2.5 g/L of glucose, 1 mM sodium pyruvate, 1.5 g/L of sodium bicarbonate, 10% heat-inactivated FBS (Gibco), and 1 × Antibiotic-Antimycotic (Gibco) at 37°C with 5% CO2 in a humidified incubator. Upon reaching 80–90% confluency, cells were treated with the chemical compounds reconstituted in DMSO for 24 h. The volume of DMSO was kept below 1% of the total culture volume in all the wells to avoid DMSO cytotoxicity. Control wells received equivalent volumes of DMSO used in the reconstituted compounds. After 24 h of culture, 10 μl of the WST-1 reagent was added to each well, and the plates were incubated for 1 h at 37°C with 5% CO2 under dark conditions. The plates were shaken thoroughly and 150 μl of the medium from each well was transferred to a new clear flat-bottom black 96-well plate (Corning). Absorbance was read at a test wavelength of 440 nm and a reference wavelength of 690 nm using a multi-mode microplate reader (Spectra Max iD3; Molecular Devices, United States). The mean percent toxicity (MPT) of each compound was derived by dividing the difference in absorbance (OD) between the compound-treated cells and the DMSO-treated cells by the absorbance from the DMSO-treated cells and multiplying the product by 100:
(2) MPT=[(MeanODDMSO-treated-MeanODCompound-treated)÷MeanODDMSO-treated]×100.
The half maximal cytotoxic concentration (CC50) values were determined by using non-linear regression analysis in GraphPad PRISM® v8. Assays were performed in triplicate and repeated three times.

[2] = ref https://pubchem.ncbi.nlm.nih.gov, cited from earlier work; for Polar surface area: topological
[3] = Tolerability in uninfected mice, daily oral gavage; format: in vivo; settings: 10 mg/kg daily oral administration, 8 days
Description: Eight weeks old male interferon-gamma knockout (IFN-γ KO) mice (B6.129S7-Ifng^TM1Ts/J) were purchased from The Jackson Laboratory, United States, and allowed to quarantine and acclimatize for 1 week before the commencement of experiments. Before the start of the infection assays in mice, the tolerability of each inhibitor was determined by daily oral gavage with varying dosages (0–10 mg/kg mouse bodyweight) in groups of mice (n = 3 mice per group) for 8 days. During this period, mice were monitored daily for any changes in physical and mental activity, feeding, body weight, body temperature, fur condition, and body posture. […] Mice were divided into infected and uninfected groups (n = 3 mice per group) and each individual mouse was housed in a separate cage lined with sterile gauze bedding. Each mouse from the infected group was infected by oral gavage administration of 10^4 C. parvum AUCP-1 isolate oocysts suspended in 50 μl of PBS. Beginning day 3 PI, groups of mice were orally treated with CpPyK inhibitors (at the specified doses), sham (100 μl of 5% DMSO in PBS), or 1,000 mg/kg paromomycin (in sterile water) once daily for a total of 8 days. Fecal pellets were collected daily in individual sterile 15 ml tubes, and submerged in an equivalent volume of PBS containing a cocktail of penicillin (100 units/ml), streptomycin (100 μg/ml), chloramphenicol (34 μg/ml), and amphotericin (0.25 μg/ml), and stored at 4°C until use. Three independent replicate infection assays were performed. Mice were sacrificed at day 11 PI, and 5 cm of the distal small intestine just anterior to the cecum was resected and submerged in 10% neutral buffered formalin and submitted for histopathological processing in the Comparative Biosciences Histology Laboratory at the University of Illinois at Urbana-Champaign. Briefly, intestinal tissues preserved in 10% neutral buffered formalin were washed in 70% ethanol, embedded in paraffin, and sectioned transversely at a thickness of 5 μm. Sections were stained with hematoxylin and eosin. The slides were imaged using a Zeiss microscope fitted with a color camera.

Solubility = format: physicochemical; settings: DMSO

Row | Compound | CC50 at 24 h [1] | Number of Hydrogen bond acceptors [2] | Number of Hydrogen bond donors [2] | Polar surface area [2] | toxicity signs in uninfected mice [3] | solubility in DMSO (Solubility)
1 | N#C/C(=C\c1cc(O)c(O)c(O)c1)C(N)=O [NSC638080, (E)-2-cyano-3-(3,4,5-trihydroxyphenyl)prop-2-enamide] | 750 µM | 5 | 4 | 128 Å² | did not induce any toxicity signs | –
2 | CCOc1ccc(/C=C2\CCc3ccccc3C2=O)cc1 [NSC252172, (2E)-2-[(4-ethoxyphenyl)methylidene]-3,4-dihydronaphthalen-1-one] | 266 µM | 2 | 0 | 26.3 Å² | did not induce any toxicity signs | –
3 | Cc1cc2c(c(C#N)c1C)NC=NC2C (stereo not drawn) [NSC303244, 4,6,7-trimethyl-1,4-dihydroquinazoline-8-carbonitrile] | 660 µM | 2 | 1 | 48.2 Å² | did not induce any toxicity signs | –
4 | c1ccc(-c2nnc(-c3ccccn3)[nH]2)nc1 [NSC234945, 2-(3-pyridin-2-yl-1H-1,2,4-triazol-5-yl)pyridine] | 432 µM | 4 | 1 | 67.4 Å² | did not induce any toxicity signs | high solubility in DMSO
